Tested on: 817829-284-R-J1-PDC complex spheroids, viability
Experiment: Anticancer human tumor 817829-284-R-J1-PDC patient-derived colon adenocarcinoma cell line growth inhibition [GQUAD]
Conditions: for IC50: curve of first compound; for viability, T/C: stronger effect = lower value
How it was run: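 Multi-cell-type spheroids of tumor cells with HUVEC and mesenchymal stem cells, treated with drug combinations. Concentrations descend in half-log steps from near clinical Cmax, or from 10 microM where Cmax is unknown; viability read-out.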

[1] = second compound 0.0316 µM, first compound 0.0316 µM
[2] = second compound 0.0316 µM, first compound 0.1 µM
[3] = second compound 0.0316 µM, first compound 0.316 µM
[4] = second compound 0.0316 µM, first compound 1 µM
[5] = second compound 0.0316 µM, first compound 3.16 µM
[6] = second compound 0.0316 µM, first compound 10 µM
[7] = second compound 0.1 µM, first compound 0.0316 µM
[8] = second compound 0.1 µM, first compound 0.1 µM
[9] = second compound 0.1 µM, first compound 0.316 µM
[10] = second compound 0.1 µM, first compound 1 µM
[11] = second compound 0.1 µM, first compound 3.16 µM
[12] = second compound 0.1 µM, first compound 10 µM
[13] = second compound 0.316 µM, first compound 0.0316 µM
[14] = second compound 0.316 µM, first compound 0.1 µM
[15] = second compound 0.316 µM, first compound 0.316 µM
[16] = second compound 0.316 µM, first compound 1 µM
[17] = second compound 0.316 µM, first compound 3.16 µM
[18] = second compound 0.316 µM, first compound 10 µM
[19] = second compound 1 µM, first compound 0.0316 µM
[20] = second compound 1 µM, first compound 0.1 µM
[21] = second compound 1 µM, first compound 0.316 µM
[22] = second compound 1 µM, first compound 1 µM
[23] = second compound 1 µM, first compound 3.16 µM
[24] = second compound 1 µM, first compound 10 µM
[25] = second compound 3.16 µM, first compound 0.0316 µM
[26] = second compound 3.16 µM, first compound 0.1 µM
[27] = second compound 3.16 µM, first compound 0.316 µM
[28] = second compound 3.16 µM, first compound 1 µM
[29] = second compound 3.16 µM, first compound 3.16 µM
[30] = second compound 3.16 µM, first compound 10 µM
[31] = second compound 10 µM, first compound 0.0316 µM
[32] = second compound 10 µM, first compound 0.1 µM
[33] = second compound 10 µM, first compound 0.316 µM
[34] = second compound 10 µM, first compound 1 µM
[35] = second compound 10 µM, first compound 3.16 µM
[36] = second compound 10 µM, first compound 10 µM
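Also: spheroids exposed to agents for 7 days before readout.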
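For viability, T/C in this document: percent viability relative to DMSO vehicle control taken as 100%.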

CC(C)(O)C1CCC(Nc2ccc3ncc(-c4cccc(C(F)(F)F)c4)n3n2)CC1 (stereo unspecified) + Cc1[nH]c2ccc(F)cc2c1-c1nc2c3cccnc3c3ncccc3c2[nH]1
IC50 (second compound 0.0316 µM): 2500 nM
IC50 (second compound 0.1 µM): 1310 nM
IC50 (second compound 0.316 µM): 955 nM
IC50 (second compound 1 µM): 620 nM
IC50 (second compound 3.16 µM): < 31.6 nM
IC50 (second compound 10 µM): < 31.6 nM
viability, T/C [1]: 109%
viability, T/C [2]: 104%
viability, T/C [3]: 88.8%
viability, T/C [4]: 64%
viability, T/C [5]: 32.5%
viability, T/C [6]: 57.5%
viability, T/C [7]: 94.6%
viability, T/C [8]: 110%
viability, T/C [9]: 104%
viability, T/C [10]: 51.9%
viability, T/C [11]: 25.5%
viability, T/C [12]: 61.6%
viability, T/C [13]: 106%
viability, T/C [14]: 111%
viability, T/C [15]: 84.5%
viability, T/C [16]: 52%
viability, T/C [17]: 25.7%
viability, T/C [18]: 54.1%
viability, T/C [19]: 107%
viability, T/C [20]: 109%
viability, T/C [21]: 78.9%
viability, T/C [22]: 30.9%
viability, T/C [23]: 8.2%
viability, T/C [24]: 32.7%
viability, T/C [25]: 3.3%
viability, T/C [26]: 3.58%
viability, T/C [27]: 2.98%
viability, T/C [28]: 1.34%
viability, T/C [29]: 0.58%
viability, T/C [30]: 1.69%
viability, T/C [31]: 2.48%
viability, T/C [32]: 2.78%
viability, T/C [33]: 2.18%
viability, T/C [34]: 1.41%
viability, T/C [35]: 0.83%
viability, T/C [36]: 1.5%

Cc1[nH]c2ccccc2c1CCNCc1ccc(/C=C/C(=O)NO)cc1 + Cc1[nH]c2ccc(F)cc2c1-c1nc2c3cccnc3c3ncccc3c2[nH]1
IC50 (second compound 0.0316 µM): 54.5 nM
IC50 (second compound 0.1 µM): 53.6 nM
IC50 (second compound 0.316 µM): 55.2 nM
IC50 (second compound 1 µM): 51 nM
IC50 (second compound 3.16 µM): 20.2 nM
IC50 (second compound 10 µM): < 0.999 nM
viability, T/C (second compound 0.0316 µM, first compound 0.000999 µM): 89.7%
viability, T/C (second compound 0.0316 µM, first compound 0.00316 µM): 102%
viability, T/C (second compound 0.0316 µM, first compound 0.00999 µM): 121%
viability, T/C [1]: 91.4%
viability, T/C (second compound 0.0316 µM, first compound 0.0999 µM): 4.1%
viability, T/C [3]: 0.13%
viability, T/C (second compound 0.1 µM, first compound 0.000999 µM): 110%
viability, T/C (second compound 0.1 µM, first compound 0.00316 µM): 108%
viability, T/C (second compound 0.1 µM, first compound 0.00999 µM): 125%
viability, T/C [7]: 89.8%
viability, T/C (second compound 0.1 µM, first compound 0.0999 µM): 3.87%
viability, T/C [9]: 0.11%
viability, T/C (second compound 0.316 µM, first compound 0.000999 µM): 99.5%
viability, T/C (second compound 0.316 µM, first compound 0.00316 µM): 119%
viability, T/C (second compound 0.316 µM, first compound 0.00999 µM): 121%
viability, T/C [13]: 92.7%
viability, T/C (second compound 0.316 µM, first compound 0.0999 µM): 4.91%
viability, T/C [15]: 0.1%
viability, T/C (second compound 1 µM, first compound 0.000999 µM): 101%
viability, T/C (second compound 1 µM, first compound 0.00316 µM): 112%
viability, T/C (second compound 1 µM, first compound 0.00999 µM): 117%
viability, T/C [19]: 82%
viability, T/C (second compound 1 µM, first compound 0.0999 µM): 5.56%
viability, T/C [21]: 0.1%
viability, T/C (second compound 3.16 µM, first compound 0.000999 µM): 71.3%
viability, T/C (second compound 3.16 µM, first compound 0.00316 µM): 99.3%
viability, T/C (second compound 3.16 µM, first compound 0.00999 µM): 65.2%
viability, T/C [25]: 38.8%
viability, T/C (second compound 3.16 µM, first compound 0.0999 µM): 3.35%
viability, T/C [27]: 0.16%
viability, T/C (second compound 10 µM, first compound 0.000999 µM): 41.8%
viability, T/C (second compound 10 µM, first compound 0.00316 µM): 56.7%
viability, T/C (second compound 10 µM, first compound 0.00999 µM): 40.3%
viability, T/C [31]: 28.5%
viability, T/C (second compound 10 µM, first compound 0.0999 µM): 2.12%
viability, T/C [33]: 0.24%

O=C(NO)c1cnc(N2CCN(S(=O)(=O)c3ccc4ccccc4c3)CC2)nc1 + Cc1[nH]c2ccc(F)cc2c1-c1nc2c3cccnc3c3ncccc3c2[nH]1
IC50 (second compound 0.0316 µM): 166 nM
IC50 (second compound 0.1 µM): 189 nM
IC50 (second compound 0.316 µM): 195 nM
IC50 (second compound 1 µM): 186 nM
IC50 (second compound 3.16 µM): < 31.6 nM
IC50 (second compound 10 µM): < 31.6 nM
viability, T/C [1]: 97%
viability, T/C [2]: 88.9%
viability, T/C [3]: 0.76%
viability, T/C [4]: 0.18%
viability, T/C [5]: 0.1%
viability, T/C [6]: 0.14%
viability, T/C [7]: 101%
viability, T/C [8]: 120%
viability, T/C [9]: 1.55%
viability, T/C [10]: 0.16%
viability, T/C [11]: 0.08%
viability, T/C [12]: 0.16%
viability, T/C [13]: 101%
viability, T/C [14]: 128%
viability, T/C [15]: 3.53%
viability, T/C [16]: 0.12%
viability, T/C [17]: 0.08%
viability, T/C [18]: 0.15%
viability, T/C [19]: 118%
viability, T/C [20]: 106%
viability, T/C [21]: 1.91%
viability, T/C [22]: 0.1%
viability, T/C [23]: 0.08%
viability, T/C [24]: 0.14%
viability, T/C [25]: 9.69%
viability, T/C [26]: 13.6%
viability, T/C [27]: 0.27%
viability, T/C [28]: 0.1%
viability, T/C [29]: 0.08%
viability, T/C [30]: 0.13%
viability, T/C [31]: 5.27%
viability, T/C [32]: 7.46%
viability, T/C [33]: 0.18%
viability, T/C [34]: 0.12%
viability, T/C [35]: 0.17%
viability, T/C [36]: 0.15%

Source: PubChem BioAssay AID2060503 (Molecular Pharmacology Branch, DTP, NCI, 2025)
